In publication PMC7730851, “Expression of Somatostatin Receptor Subtypes (SSTR-1–SSTR-5) in Pediatric Hematological and Oncological Disorders” (Molecules, 2020):
pKd: −log10 of the molar value. “Also recorded” adds a separate entry of the source. Like-named read-outs stand apart in the source and are kept apart here. One block for each molecule: values may come before it. Positions of bridges follow the written chain, without caps; N, C: chain ends. Non-standard residues stand in square brackets, D forms with d. Residues, ends and D or L forms follow the SMILES beside them.

Columns and labels:
[1] = molecular target: somatostatin receptors (SSTR); assay: Ligand competition assay: binding of [125I]RC-160 to membrane homogenates of pediatric solid tumor samples (Scatchard / LIGAND-PC); design: species or system human
Experimental: (§1) Receptor binding affinities and concentrations of SSTRs in tumor membranes were also studied. […] Biochemical specifications and parameters crucial to characterize specific binding sites were also defined. […] Various peptides structurally related or unrelated to SST were used in these studies.
(§2) The radioiodinated derivatives of the RC-160 SST analogue were prepared by the chloramine-T method and purified by reverse phase high-performance liquid chromatography (RP-HPLC) as described previously. Somatostatin receptor-binding assays were performed as described previously with some minor modifications, using in vitro ligand competition assays based on the binding of [^125I] RC-160 as a radioligand to membrane fractions of the pediatric samples. This radioiodinated ligand has been well characterized and reported previously and has high affinity for SSTR-2 and SSTR-5 [4]. Tumor membrane homogenates were incubated as competitors with 50,000–70,000 cpm radioiodinated RC-160 and 10^−12–10^−6 M nonradioactive peptides. After incubation for 2 h, the binding reactions were stopped, and the bound ligand was separated and counted in a gamma counter. The LIGAND-PC computer curve-fitting software of Munson and Rodbard was used to determine the type of receptor binding, the dissociation constant (Kd), and the maximal binding capacity of SSTRs (Bmax). […] The final binding affinities were expressed as IC50 values. Protein concentration was determined by the method of Bradford using a Bio-Rad protein assay kit (Bio-Rad Laboratories, Inc.).

[2] = system: SSTR-2; conditions: cited from earlier work
[3] = system: SSTR-5; conditions: cited from earlier work
[4] = system: somatostatin receptors (SSTR); assay: Displacement of [125I]RC-160 binding from membranes of human pediatric tumors by unlabeled peptides; conditions: for inhibition/displacement of the binding of radioiodinated RC-160: pediatric tumor membranes, competitor 10^-12-10^-6 M, concentrations as high as 1 µM; for displacement of [125I]RC-160 binding: membrane fractions of human rhabdomyosarcoma specimen, Figure 3
Experimental: as §1
Displacement of [^125I] RC-160 as a radioligand by the unlabeled SST analogs as competitor was determined.
as §2

[5] = system: SSTR-3; conditions: cited from earlier work
[6] = system: SSTR-1; conditions: cited from earlier work

pKd ([1]; mean of seven receptor-positive pediatric tumor samples, read-out: mean dissociation constant (Kd)): 8.22
pKd ([1]; patient 4, Hodgkin lymphoma membranes, duplicates, read-out: SSTR Kd): 8.10
pKd ([1]; patient 5, rhabdomyosarcoma membranes, duplicates, read-out: SSTR Kd): 8.09
pKd ([1]; patient 6, rhabdomyosarcoma membranes, duplicates, read-out: SSTR Kd): 8.37
pKd ([1]; patient 7, hamartoma membranes, duplicates, read-out: SSTR Kd): 8.40
pKd ([1]; range over seven receptor-positive pediatric tumor samples, read-out: dissociation constant (Kd), range): 8.09 to 8.40
Molecule: CC(C)[C@@H]1NC(=O)[C@H](CCCCN)NC(=O)[C@@H](Cc2c[nH]c3ccccc23)NC(=O)[C@H](Cc2ccc(O)cc2)NC(=O)[C@@H](NC(=O)[C@H](N)Cc2ccccc2)CSSC[C@@H](C(=O)N[C@@H](Cc2c[nH]c3ccccc23)C(N)=O)NC1=O [[125I]RC-160] (H-[dF]CY[dW]KVCW-NH2; disulfide 2-7)
pKd ([1]; patient 1, teratoma membranes, duplicates, read-out: SSTR Kd): 8.24
affinity for SSTR-2 [2]: high affinity
affinity for SSTR-5 [3]: high affinity

displacement of [125I]RC-160 binding [4]: did not displace
Molecule: VIP: unrelated peptide used as specificity control (Figure 3)

inhibition/displacement of the binding of radioiodinated RC-160 [4]: none
Molecule: [Tyr4]bombesin

displacement of [125I]RC-160 binding [4]: did not displace
Molecule: bombesin

inhibition/displacement of the binding of radioiodinated RC-160 [4]: none
Molecule: insulin-like growth factor I: unrelated peptide used as specificity control

Second part, the molecule before the results:

Molecule: SST-14: somatostatin-14, native peptide
inhibition/displacement of the binding of radioiodinated RC-160 [4]: displaced completely

Molecule: growth hormone-releasing hormone (GHRH): unrelated peptide used as specificity control
displacement of [125I]RC-160 binding [4]: did not displace
inhibition/displacement of the binding of radioiodinated RC-160 [4]: none

Molecule: luteinizing hormone-releasing hormone (LHRH): unrelated peptide used as specificity control
displacement of [125I]RC-160 binding [4]: did not displace
inhibition/displacement of the binding of radioiodinated RC-160 [4]: none

Molecule: octreotide
affinity to SSTR-2 [2]: high affinity; also recorded: highest affinity
affinity to SSTR-5 [3]: high affinity; also recorded: approximately similar affinity
affinity to SSTR-3 [5]: approximately similar affinity
affinity to SSTR-1 [6]: lower binding affinity

Molecule: pasireotide
affinity to SSTR-5 [3]: possesses an affinity
affinity to SSTR-3 [5]: possesses an affinity
affinity to SSTR-1 [6]: possesses an affinity
